Drawing on patent publication US12486269B2 (Aconcagua Bio, Inc., priority 2024, dated 2025), this text covers EC50 for 15 molecules.

Experiment [1] concerns the target T1, COS-7/AMY3 (human calcitonin receptor (CTR) and RAMP3) (Homo sapiens, UniProt O60896+P30988).
T1 construct: expressed in transfected cells; host or cells: COS-7
Nature of the experiment: Amylin Receptor cAMP Assay II. It counts as cell-based. To be noted: values marked **: Amylin Receptor cAMP Assay II; COS-7/AMY3 cells, cAMP dynamic 2 kit, 30 min; read-out: Amylin Receptor cAMP Stimulation Activity: EC50. Put shortly: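 Agonist-induced cAMP was quantified by HTRF ratio at 665/615 nm and expressed as % of the window from vehicle to MAX control. Stimulation lasted 30 min at 37 °C in HBSS/20 mM HEPES/0.5 mM IBMX/0.1% casein, using stable human CTR+RAMP3 (AMY3) COS-7 cells at 2000 per well.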

The target of experiment [2] is T2, human calcitonin receptor (CTR) (Homo sapiens, UniProt P30988).
T2 construct: expressed in transfected cells; host or cells: COS-7 (COS7-human CTR Clone #2)
T2 sequence (P30988 25-474): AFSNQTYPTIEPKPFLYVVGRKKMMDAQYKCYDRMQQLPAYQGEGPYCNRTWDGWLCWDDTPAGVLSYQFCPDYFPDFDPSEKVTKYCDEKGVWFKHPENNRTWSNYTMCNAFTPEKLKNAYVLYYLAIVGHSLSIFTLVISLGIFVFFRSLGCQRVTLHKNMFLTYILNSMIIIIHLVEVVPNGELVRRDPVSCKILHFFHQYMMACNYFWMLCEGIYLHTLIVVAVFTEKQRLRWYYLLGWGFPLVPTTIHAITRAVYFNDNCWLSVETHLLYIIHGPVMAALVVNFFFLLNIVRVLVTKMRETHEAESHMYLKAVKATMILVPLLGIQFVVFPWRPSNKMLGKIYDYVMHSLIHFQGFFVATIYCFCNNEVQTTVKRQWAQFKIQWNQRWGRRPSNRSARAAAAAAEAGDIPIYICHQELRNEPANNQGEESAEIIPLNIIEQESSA
Nature of the experiment: Calcitonin Receptor (CTR) cAMP Assay. It counts as cell-based. Conditions: COS7-human CTR Clone #2 stable cell line, cAMP dynamic 2 kit, 30 min; read-out: Calcitonin Receptor cAMP Stimulation Activity: EC50. Put shortly: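 cAMP accumulation was measured by HTRF cAMP dynamic 2 read at 665/615 nm, 1 h at room temperature, with results scaled between vehicle and positive control. Before detection, COS7-human CTR stable cells were stimulated 30 min at 37 °C with compound (4-fold dilutions) in IBMX-containing HBSS/HEPES/casein buffer.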

T1 sequence (O60896 24-148, one chain of several): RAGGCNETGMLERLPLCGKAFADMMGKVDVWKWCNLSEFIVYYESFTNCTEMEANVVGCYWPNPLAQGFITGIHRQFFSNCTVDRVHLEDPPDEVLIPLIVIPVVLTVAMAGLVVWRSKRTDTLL

`COc1cccc2c1CC[C@H]2Nc1nccc2cc(-c3c4c(nc(CCc5ccc(F)cc5)c3-c3n[nH]c(=O)o3)[C@@H]3COCCN3C4=O)sc12` [Compound 235, (R)-2-(4-fluorophenethyl)-4-(7-(((R)-4-methoxy-2,3-dihydro-1H-inden-1-yl)amino)thieno[2,3-c]pyridin-2-yl)-3-(5-oxo-4,5-dihydro-1,3,4-oxadiazol-2-yl)-7,8,10,10a-tetrahydro-5H-pyrido[2′,3′:3,4]pyrrolo[2,1-c][1,4]oxazin-5-one]: the figures for the EC50 in experiment [1] and in experiment [2] were 18.1 nM and 0.236 nM, respectively.
For `COc1cccc2c1CC[C@H]2Nc1nccc2cc(-c3c(-c4n[nH]c(=O)o4)c(CCc4ccc(F)cc4)nc4c3S(=O)(=O)C[C@@H]4C(C)C)sc12` [Compound 236, 5-((R)-5-(4-fluorophenethyl)-3-isopropyl-7-(7-(((R)-4-methoxy-2,3-dihydro-1H-inden-1-yl)amino)thieno[2,3-c]pyridin-2-yl)-1,1-dioxido-2,3-dihydrothieno[3,2-b]pyridin-6-yl)-1,3,4-oxadiazol-2(3H)-one] the same measures were 128 nM and 177 nM.
For `COc1cccc2c1CC[C@H]2Nc1nccc2cc(-c3c(-c4n[nH]c(=O)o4)c(CCc4ccc(F)cc4)nc4c3S(=O)(=O)C[C@H]4C(C)C)sc12` [Compound 237, 5-((S)-5-(4-fluorophenethyl)-3-isopropyl-7-(7-(((R)-4-methoxy-2,3-dihydro-1H-inden-1-yl)amino)thieno[2,3-c]pyridin-2-yl)-1,1-dioxido-2,3-dihydrothieno[3,2-b]pyridin-6-yl)-1,3,4-oxadiazol-2(3H)-one] the same measures were 18.5 nM and 0.591 nM.
For `N#Cc1ccc(Cn2c(=O)oc3cc(-c4c(-c5n[nH]c(=O)o5)c(CCc5ccc(F)cc5)nc5c4S(=O)(=O)CC54CC4)ccc32)nc1` [Compound 238, 6-((6-(5′-(4-fluorophenethyl)-1′,1′-dioxido-6′-(5-oxo-4,5-dihydro-1,3,4-oxadiazol-2-yl)-2′H-spiro[cyclopropane-1,3′-thieno[3,2-b]pyridin]-7′-yl)-2-oxobenzo[d]oxazol-3(2H)-yl)methyl)nicotinonitrile] the same measures were 75.7 nM and 5.12 nM.
On to `COc1cc(Cl)cc2c1CC[C@H]2Nc1nccc2cc(-c3c4c(nc(CCc5ccc(F)cc5)c3-c3n[nH]c(=O)o3)[C@@H]3CCCN3C4=O)sc12` [Compound 239, 5-((S)-4-(7-(((R)-6-chloro-4-methoxy-2,3-dihydro-1H-inden-1-yl)amino)thieno[2,3-c]pyridin-2-yl)-2-(4-fluorophenethyl)-5-oxo-7,8,9,9a-tetrahydro-5H-pyrido[2,3-a]pyrrolizin-3-yl)-1,3,4-oxadiazol-2(3H)-one], for which the results for the EC50 in experiment [1] and in experiment [2] were 23.4 nM and 0.975 nM, respectively.
`COc1cccc2c1CC[C@H]2N1Cc2cc(-c3c4c(nc(CCc5ccc(F)cc5)c3-c3n[nH]c(=O)o3)C35CC(CN3C4=O)C5)ccc2C1=O` [Compound 240, (R)-5-(2-(4-fluorophenethyl)-4-(2-(4-methoxy-2,3-dihydro-1H-inden-1-yl)-1-oxoisoindolin-5-yl)-5-oxo-8,9-dihydro-5H,7H-8,9a-methanopyrido[2,3-a]pyrrolizin-3-yl)-1,3,4-oxadiazol-2(3H)-one]: the EC50 (in general, the midpoint of the concentration-response curve) in experiment [1] was determined as 182 nM; in experiment [2], 8.9 nM.
Take `COc1cccc2c1CC[C@H]2Nc1nccc2cc(-c3c4c(nc(CCc5ccn6ccnc6c5)c3-c3n[nH]c(=O)o3)[C@@H]3CCCN3C4=O)sc12` [Compound 241, 5-((S)-2-(2-(imidazo[1,2-a]pyridin-7-yl)ethyl)-4-(7-(((R)-4-methoxy-2,3-dihydro-1H-inden-1-yl)amino)thieno[2,3-c]pyridin-2-yl)-5-oxo-7,8,9,9a-tetrahydro-5H-pyrido[2,3-a]pyrrolizin-3-yl)-1,3,4-oxadiazol-2(3H)-one]: the EC50 came to 33.5 nM in experiment [1] and 1.72 nM in experiment [2].
For the molecule `COc1cccc2c1CC[C@H]2Nc1nccc2cc(-c3c4c(nc(CCc5ccc(Cl)cc5)c3-c3n[nH]c(=O)o3)[C@@H]3CCCN3C4=O)sc12` [Compound 242, 5-((S)-2-(4-chlorophenethyl)-4-(7-(((R)-4-methoxy-2,3-dihydro-1H-inden-1-yl)amino)thieno[2,3-c]pyridin-2-yl)-5-oxo-7,8,9,9a-tetrahydro-5H-pyrido[2,3-a]pyrrolizin-3-yl)-1,3,4-oxadiazol-2(3H)-one], the figures for the EC50 in experiment [1] and in experiment [2] were 18.4 nM and 0.668 nM, respectively.
For `COc1cccc2c1CC[C@H]2Nc1nccc2cc(-c3c4c(nc(CCc5ccc(-n6cccn6)cc5)c3-c3n[nH]c(=O)o3)[C@@H]3CCCN3C4=O)sc12` [Compound 243, 5-((S)-2-(4-(1H-pyrazol-1-yl)phenethyl)-4-(7-(((R)-4-methoxy-2,3-dihydro-1H-inden-1-yl)amino)thieno[2,3-c]pyridin-2-yl)-5-oxo-7,8,9,9a-tetrahydro-5H-pyrido[2,3-a]pyrrolizin-3-yl)-1,3,4-oxadiazol-2(3H)-one] the same measures were 11.2 nM and 1.18 nM.
Consider `COc1ccc(CCc2nc3c(c(-c4cc5ccnc(N[C@@H]6CCc7c(OC)cccc76)c5s4)c2-c2n[nH]c(=O)o2)C(=O)N2CCC[C@@H]32)cc1F` [Compound 244, 5-((S)-2-(3-fluoro-4-methoxyphenethyl)-4-(7-(((R)-4-methoxy-2,3-dihydro-1H-inden-1-yl)amino)thieno[2,3-c]pyridin-2-yl)-5-oxo-7,8,9,9a-tetrahydro-5H-pyrido[2,3-a]pyrrolizin-3-yl)-1,3,4-oxadiazol-2(3H)-one], for which the figures for the EC50 in experiment [1] and in experiment [2] were 22.7 nM and 1.16 nM, respectively.
`COc1cccc2c1CC[C@H]2Nc1nccc2cc(-c3c4c(nc(CCc5cc(F)cs5)c3-c3n[nH]c(=O)o3)[C@@H]3CCCN3C4=O)sc12` [Compound 245, 5-((S)-2-(2-(4-fluorothiophen-2-yl)ethyl)-4-(7-(((R)-4-methoxy-2,3-dihydro-1H-inden-1-yl)amino)thieno[2,3-c]pyridin-2-yl)-5-oxo-7,8,9,9a-tetrahydro-5H-pyrido[2,3-a]pyrrolizin-3-yl)-1,3,4-oxadiazol-2(3H)-one]: the EC50 in experiment [1] turned out to be 19.1 nM; in experiment [2], 0.469 nM.
Regarding `O=C1c2c(nc(CCc3ccc(F)cc3)c(-c3n[nH]c(=O)o3)c2-c2cc3ccnc(N[C@@H]4CCc5ccc(F)cc54)c3s2)[C@@H]2CCCN12` [Compound 246, 5-((S)-4-(7-(((R)-6-fluoro-2,3-dihydro-1H-inden-1-yl)amino)thieno[2,3-c]pyridin-2-yl)-2-(4-fluorophenethyl)-5-oxo-7,8,9,9a-tetrahydro-5H-pyrido[2,3-a]pyrrolizin-3-yl)-1,3,4-oxadiazol-2(3H)-one], the EC50 in experiment [1] amounted to 6.78 nM; in experiment [2], 0.219 nM.
Take `O=C1c2c(nc(CCc3ccc(F)cc3)c(-c3n[nH]c(=O)o3)c2-c2cc3ccnc(N[C@@H]4CCc5nc(C(F)(F)F)ccc54)c3s2)[C@@H]2CCCN12` [Compound 247, 5-((S)-2-(4-fluorophenethyl)-5-oxo-4-(7-(((R)-2-(trifluoromethyl)-6,7-dihydro-5H-cyclopenta[b]pyridin-5-yl)amino)thieno[2,3-c]pyridin-2-yl)-7,8,9,9a-tetrahydro-5H-pyrido[2,3-a]pyrrolizin-3-yl)-1,3,4-oxadiazol-2(3H)-one]: the EC50 was 2410 nM in experiment [1] and 21.1 nM in experiment [2].
On the same counts, the results for `O=C1c2c(nc(CCc3ccc(F)cc3)c(-c3n[nH]c(=O)o3)c2-c2cc3ccnc(Cc4coc5ccccc45)c3s2)[C@@H]2CCCN12` [Compound 248, (S)-5-(4-(7-(benzofuran-3-ylmethyl)thieno[2,3-c]pyridin-2-yl)-2-(4-fluorophenethyl)-5-oxo-7,8,9,9a-tetrahydro-5H-pyrido[2,3-a]pyrrolizin-3-yl)-1,3,4-oxadiazol-2(3H)-one] are 4200 nM and 102 nM.
Turning to `Cn1cc(Cc2nccc3cc(-c4c5c(nc(CCc6ccc(F)cc6)c4-c4n[nH]c(=O)o4)[C@@H]4CCCN4C5=O)sc23)c2ccccc21` [Compound 249, (S)-5-(2-(4-fluorophenethyl)-4-(7-((1-methyl-1H-indol-3-yl)methyl)thieno[2,3-c]pyridin-2-yl)-5-oxo-7,8,9,9a-tetrahydro-5H-pyrido[2,3-a]pyrrolizin-3-yl)-1,3,4-oxadiazol-2(3H)-one], the EC50 in experiment [1] was found to be 62800 nM; in experiment [2], 857 nM.
